Read-outs that look alike come from different tables or passages of the source.
How the values were obtained:
[1] = test system: Aspergillus niger; conditions: 8 cubic meters
From the text: (§1) The components of the device included a nebuliser array, (6×2 cm diameter transducers in a circular array), a heater element, a first and second fan and a dehumidifier system. The dehumidifier used had been a small air conditioning unit positioned appropriately within the space. The purpose of the first fan was to propel nanoparticles from the heater into the space and the purpose of the second fan was to ensure an equal distribution of the aerosol to all surfaces within the space.
(§2) Tests were conducted in an 8 cubic meter volume of cubic shape.
(§3) Samples were coated with an inoculum at levels of approximately log 6 and air dried for 2 hours on the plastic petri dish (Techno-Plas, Australia) in a laminar flow cabinet. The samples were placed in various positions in the room including on the walls, floor and ceiling.
(§4) Unless otherwise stated, the operating conditions were: • Solution: 35% peroxide • Temp: 25 degrees • RH: fluctuated 45% to ˜65%. Sometimes 75% • Nebulizer array 2.4 MHz • Peroxide vapour: 300-500 ppm • Air flow post heater: 400-600 cubic meters per hour. • Heater Temp: 80-90 degrees • Peroxide delivery: Optimally approximately 0.75 gram per cubic meter per minute, ie […] for the 8 cubic meter room.

[2] = test system: Aspergillus niger; conditions: 69 cubic meters, peroxide vapour 500 ppm, contact time 30 min
Method: as §3, §4

[3] = test system: Bacillus stearothermophillus; conditions: at 550 ppm; on both the walls and floor
Method: as §3, §4

[4] = test system: Pseudomonas aeruginosa; conditions: 8 cubic meters
From the text: as §1, §2, §3, §4
The dishes and lids are specifically designed to allow gas exchange with an incubator environment while keeping the dish free from external microbial contamination.

[5] = peroxide vapour 250 ppm, contact time 5 min
[6] = peroxide vapour 250 ppm, contact time 10 min
[7] = peroxide vapour 250 ppm, contact time 20 min
[8] = peroxide vapour 250 ppm, contact time 30 min
[9] = peroxide vapour 500 ppm, contact time 5 min
[10] = peroxide vapour 500 ppm, contact time 10 min
[11] = peroxide vapour 500 ppm, contact time 20 min
[12] = peroxide vapour 500 ppm, contact time 30 min
[13] = Table 4, peroxide vapour 350 ppm, contact time 15 min
[14] = Table 4, peroxide vapour 550 ppm, contact time 15 min
[15] = Table 4, peroxide vapour 550 ppm, contact time 20 min
[16] = Table 4, peroxide vapour 550 ppm, contact time 30 min
[17] = closed carriers, peroxide vapour 300 ppm, contact time 20 min
[18] = open carriers, peroxide vapour 50 ppm, contact time 5 min
[19] = open carriers, peroxide vapour 50 ppm, contact time 10 min
[20] = open carriers, peroxide vapour 50 ppm, contact time […]
[21] = open carriers, peroxide vapour 200 ppm, contact time 5 min
[22] = open carriers, peroxide vapour 200 ppm, contact time 10 min
[23] = open carriers, peroxide vapour 200 ppm, contact time 20 min
[24] = open carriers, peroxide vapour 200 ppm, contact time […]
[25] = open carriers, peroxide vapour 350 ppm, contact time 5 min
[26] = open carriers, peroxide vapour 350 ppm, contact time 10 min
[27] = open carriers, peroxide vapour 350 ppm, contact time 20 min
[28] = open carriers, peroxide vapour 350 ppm, contact time […]

OO [Peroxide, hydrogen peroxide]
3.6 log reduction: Wall (log reduction) [4, 18]
3.5 log reduction: Wall (log reduction) [4, 20]
6.9 log reduction: Wall (log reduction) Closed carriers [1, 9] | Wall (log reduction) Open carriers [1, 9] | Wall (log reduction) Closed carriers [1, 10] | Wall (log reduction) Open carriers [1, 10] | Wall (log reduction) Closed carriers [1, 11] | Wall (log reduction) Open carriers [1, 11] | Wall (log reduction) Closed carriers [1, 12] | Wall (log reduction) Open carriers [1, 12]
6.1 log reduction: Floor (log reduction) Closed carriers [1, 13] | Floor (log reduction) [4, 25] | Floor (log reduction) [4, 26] | Wall (log reduction) [4, 26] | Floor (log reduction) [4, 27] | Wall (log reduction) [4, 27] | Floor (log reduction) [4, 28]
4.4 log reduction: Floor (log reduction) [4, 24] | Wall (log reduction) [4, 28]
5.7 log reduction: Wall (log reduction) Closed carriers [1, 13] | Wall (log reduction) [4, 21] | Wall (log reduction) [4, 22] | Floor (log reduction) [4, 23] | Wall (log reduction) [4, 23] | Wall (log reduction) [4, 24]
5.2 log reduction: Floor (log reduction) [4, 21]
6.3 log reduction: Wall (log reduction) Open carriers [1, 5] | Wall (log reduction) Closed carriers [1, 6] | Wall (log reduction) Open carriers [1, 6] | Wall (log reduction) Closed carriers [1, 7] | Wall (log reduction) Open carriers [1, 7] | Wall (log reduction) Closed carriers [1, 8] | Wall (log reduction) Open carriers [1, 8] | Wall (log reduction) Closed carriers [1, 14] | Wall (log reduction) ([4]; closed carriers, peroxide vapour 300 ppm, contact time 10 min)
6.7 log reduction: Floor (log reduction) Open carriers [1, 14] | Wall (log reduction) Open carriers [1, 14] | Floor (log reduction) ([2]; closed) | Wall (log reduction) ([2]; closed) | Floor (log reduction) ([2]; open) | Wall (log reduction) ([2]; open) | Wall (log reduction) ([4]; closed carriers, peroxide vapour 300 ppm, contact time 5 min) | Wall (log reduction) [4, 17]
6.5 log reduction: Floor (log reduction) Open carriers [1, 13]
7.5 log reduction: Floor (log reduction) Closed carriers [1, 15] | Floor (log reduction) Open carriers [1, 15] | Wall (log reduction) Closed carriers [1, 15] | Wall (log reduction) Open carriers [1, 15] | Floor (log reduction) Closed carriers [1, 16] | Floor (log reduction) Open carriers [1, 16] | Wall (log reduction) Open carriers [1, 16]
5.9 log reduction: Wall (log reduction) Open carriers [1, 13]
TNTC: Floor (log reduction) [4, 18] | Floor (log reduction) [4, 19] | Floor (log reduction) [4, 20]
4.3 log reduction: Wall (log reduction) [4, 19]
5.8 log reduction: Floor (log reduction) [4, 17] | Wall (log reduction) [4, 25]
greater than 6 log reductions: log reductions [3]
5.1 log reduction: Wall (log reduction) Closed carriers [1, 5]
6.6 log reduction: Floor (log reduction) Closed carriers [1, 14] | Wall (log reduction) Closed carriers [1, 16]
3.4 log reduction: Floor (log reduction) [4, 22]

Source: patent US8974737B2, “Space Disinfection” (Saban Ventures PTY Limited, priority 2005, dated 2015)
